Measured values published in patent publication US11780893B2, “Kv1.3 blockers” (Zealand Pharma A/S, priority 2019, dated 2023).
Bridge positions count the residues as written; N and C are the ends. Square brackets hold non-standard residues; d marks the D form. Peptide text beside a SMILES is read from it. Nle = CCCC[C@H](N)C(=O)O

Molecular target: T1, human Kv1.3 voltage-gated K+ channel (Homo sapiens, UniProt P22001)
T1 construct: host or cells: CHO-DUKX
Experiment: cell-based
Details: inhibition of thallium flux, CHO-DUKX cells with human Kv1.3; read-out: IC50

T1 sequence (P22001 whole entry): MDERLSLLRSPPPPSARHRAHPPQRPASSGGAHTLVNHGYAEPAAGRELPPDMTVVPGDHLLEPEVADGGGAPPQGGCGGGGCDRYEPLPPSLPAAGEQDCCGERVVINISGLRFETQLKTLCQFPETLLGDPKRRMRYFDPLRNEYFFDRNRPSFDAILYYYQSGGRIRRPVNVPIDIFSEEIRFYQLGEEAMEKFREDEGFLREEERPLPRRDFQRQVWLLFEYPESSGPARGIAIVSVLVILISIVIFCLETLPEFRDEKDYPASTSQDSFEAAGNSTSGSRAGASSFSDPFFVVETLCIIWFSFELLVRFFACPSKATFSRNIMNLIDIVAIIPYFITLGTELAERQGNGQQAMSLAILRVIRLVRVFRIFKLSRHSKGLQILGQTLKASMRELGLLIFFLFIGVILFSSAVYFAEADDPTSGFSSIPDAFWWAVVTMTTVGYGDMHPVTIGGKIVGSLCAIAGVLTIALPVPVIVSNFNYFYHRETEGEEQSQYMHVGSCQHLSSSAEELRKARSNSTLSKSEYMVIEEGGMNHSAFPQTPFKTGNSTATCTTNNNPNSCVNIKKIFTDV

## CCCC[C@@H]1NC(=O)[C@@H]2CSSC[C@H](NC(=O)[C@H](CCCNC(=N)N)NC(C)=O)C(=O)N[C@@H](CO)C(=O)N[C@@H](C)C(=O)N[C@@H](CO)C(=O)N[C@@H](C(C)C)C(=O)N[C@@H](CCC(=O)O)C(=O)N[C@H]3CSSC[C@H](NC(=O)[C@H](CCCCN)NC(=O)[C@H](CCCCN)NC(=O)[C@H](CC(N)=O)NC1=O)C(=O)N[C@@H](CCCCN)C(=O)N[C@H](C(=O)N[C@@H](Cc1ccc(O)cc1)C(=O)N1CCC[C@H]1C(=O)N[C@@H](CCCNC(=N)N)C(=O)O)CSSC[C@H](NC(=O)[C@H](CCCCN)NC(=O)[C@H](CCC(N)=O)NC(=O)[C@H](CCCCN)NC3=O)C(=O)N[C@@H](CC(C)C)C(=O)N[C@@H](CCCCN)C(=O)N[C@@H](C)C(=O)N[C@@H]([C@@H](C)CC)C(=O)NCC(=O)N[C@@H](CO)C(=O)N[C@@H]([C@@H](C)CC)C(=O)N[C@@H](Cc1ccccc1)C(=O)NCC(=O)N[C@@H](CCCCN)C(=O)N2 [Compound 113] (Ac-RCSASVECKQKCLKAIGSIFGKC[Nle]NKKCKCYPR-OH; disulfide 2-23, 8-28, 12-30)
  IC50: 0.34 nM

## CCCC[C@H](NC(=O)[C@@H]1CCCN1)C(=O)N[C@@H](CCC(=O)O)C(=O)N[C@@H](CCCC)C(=O)N[C@@H](CCCNC(=N)N)C(=O)N[C@H]1CSSC[C@@H]2NC(=O)[C@H](CCCCN)NC(=O)CNC(=O)[C@H](Cc3ccccc3)NC(=O)[C@H]([C@@H](C)CC)NC(=O)[C@H](CO)NC(=O)CNC(=O)[C@H]([C@@H](C)CC)NC(=O)[C@H](C)NC(=O)[C@H](C)NC(=O)[C@H](CC(C)C)NC(=O)[C@@H]3CSSC[C@@H](C(=O)N[C@@H](Cc4ccc(O)cc4)C(=O)N4CCC[C@H]4C(=O)N[C@@H](CCCNC(=N)N)C(=O)O)NC(=O)[C@H](CCCCN)NC(=O)[C@H](CSSC[C@H](NC(=O)[C@H](CCC(=O)O)NC(=O)[C@H](C(C)C)NC(=O)[C@H](CO)NC(=O)[C@H](C)NC(=O)[C@H](CO)NC1=O)C(=O)N[C@@H](CCCCN)C(=O)N[C@@H](CCC(=O)O)C(=O)N[C@@H](CCCCN)C(=O)N3)NC(=O)[C@H](CCCCN)NC(=O)[C@H](CCCCN)NC(=O)[C@H](CC(N)=O)NC(=O)[C@H](CCCC)NC2=O [Compound 118] (H-P[Nle]E[Nle]RCSASVECKEKCLAAIGSIFGKC[Nle]NKKCKCYPR-OH; disulfide 6-27, 12-32, 16-34)
  IC50: 1.39 nM

## CCCC[C@@H]1NC(=O)[C@@H]2CSSC[C@H](NC(=O)[C@H](CCCNC(=N)N)NC(=O)[C@H](CCCC)NC(=O)[C@H](CCC(=O)O)NC(=O)[C@H](CCCC)NC(=O)[C@H]3CCCN3)C(=O)N[C@@H](CO)C(=O)N[C@@H](C)C(=O)N[C@@H](CO)C(=O)N[C@@H](C(C)C)C(=O)N[C@@H](CCC(=O)O)C(=O)N[C@H]3CSSC[C@H](NC(=O)[C@H](CCCCN)NC(=O)[C@H](CCCCN)NC(=O)[C@H](CC(N)=O)NC1=O)C(=O)N[C@@H](CCCCN)C(=O)N[C@H](C(=O)N[C@@H](Cc1ccc(O)cc1)C(=O)N1CCC[C@H]1C(=O)N[C@@H](CCCNC(=N)N)C(=O)O)CSSC[C@H](NC(=O)[C@H](CCCCN)NC(=O)[C@H](CCC(N)=O)NC(=O)[C@H](CCCCN)NC3=O)C(=O)N[C@@H](CC(C)C)C(=O)N[C@@H](C)C(=O)N[C@@H](C)C(=O)N[C@@H]([C@@H](C)CC)C(=O)NCC(=O)N[C@@H](CO)C(=O)N[C@@H]([C@@H](C)CC)C(=O)N[C@@H](Cc1ccccc1)C(=O)NCC(=O)N[C@@H](CCCCN)C(=O)N2 [Compound 119] (H-[dP][Nle]E[Nle]RCSASVECKQKCLAAIGSIFGKC[Nle]NKKCKCYPR-OH; disulfide 6-27, 12-32, 16-34)
  IC50: 0.63 nM

## CCCC[C@H](NC(=O)[C@@H]1CCCN1)C(=O)N[C@@H](CCC(=O)O)C(=O)N[C@@H](CCCC)C(=O)N[C@@H](CCCNC(=N)N)C(=O)N[C@H]1CSSC[C@@H]2NC(=O)[C@H](CCCCN)NC(=O)CNC(=O)[C@H](Cc3ccccc3)NC(=O)[C@H]([C@@H](C)CC)NC(=O)[C@H](CO)NC(=O)CNC(=O)[C@H]([C@@H](C)CC)NC(=O)[C@H](C)NC(=O)[C@H](C)NC(=O)[C@H](CC(C)C)NC(=O)[C@@H]3CSSC[C@@H](C(=O)N[C@@H](Cc4ccc(O)cc4)C(=O)N[C@@H](CCCNC(=N)N)C(=O)O)NC(=O)[C@H](CCCCN)NC(=O)[C@H](CSSC[C@H](NC(=O)[C@H](CCC(=O)O)NC(=O)[C@H](C(C)C)NC(=O)[C@H](CO)NC(=O)[C@H](C)NC(=O)[C@H](CO)NC1=O)C(=O)N[C@@H](CCCCN)C(=O)N[C@@H](CCC(N)=O)C(=O)N[C@@H](CCCCN)C(=O)N3)NC(=O)[C@H](CCCCN)NC(=O)[C@H](CCCCN)NC(=O)[C@H](CC(N)=O)NC(=O)[C@H](CCCC)NC2=O [Compound 120] (H-P[Nle]E[Nle]RCSASVECKQKCLAAIGSIFGKC[Nle]NKKCKCYR-OH; disulfide 6-27, 12-32, 16-34)
  IC50: 0.894 nM

## CCCC[C@@H]1NC(=O)[C@@H]2CSSC[C@H](NC(=O)[C@H](CCCNC(=N)N)NC(=O)[C@H](CCCC)NC(=O)[C@H](CCC(=O)O)NC(=O)[C@@H](N)CCCC)C(=O)N[C@@H](CO)C(=O)N[C@@H](C)C(=O)N[C@@H](CO)C(=O)N[C@@H](C(C)C)C(=O)N[C@@H](CCC(=O)O)C(=O)N[C@H]3CSSC[C@H](NC(=O)[C@H](CCCCN)NC(=O)[C@H](CCCCN)NC(=O)[C@H](CC(N)=O)NC1=O)C(=O)N[C@@H](CCCCN)C(=O)N[C@H](C(=O)N[C@@H](Cc1ccc(O)cc1)C(=O)N1CCC[C@H]1C(=O)N[C@@H](CCCNC(=N)N)C(=O)O)CSSC[C@H](NC(=O)[C@H](CCCCN)NC(=O)[C@H](CCC(N)=O)NC(=O)[C@H](CCCCN)NC3=O)C(=O)N[C@@H](CC(C)C)C(=O)N[C@@H](C)C(=O)N[C@@H](C)C(=O)N[C@@H]([C@@H](C)CC)C(=O)NCC(=O)N[C@@H](CO)C(=O)N[C@@H]([C@@H](C)CC)C(=O)N[C@@H](Cc1ccccc1)C(=O)NCC(=O)N[C@@H](CCCCN)C(=O)N2 [Compound 121] (H-[Nle]E[Nle]RCSASVECKQKCLAAIGSIFGKC[Nle]NKKCKCYPR-OH; disulfide 5-26, 11-31, 15-33)
  IC50: 0.451 nM

## CCCC[C@H](NC(=O)[C@@H]1CCCN1)C(=O)N[C@@H](CCC(=O)O)C(=O)N[C@@H](CCCC)C(=O)N[C@@H](CCCNC(=N)N)C(=O)N[C@H]1CSSC[C@@H]2NC(=O)[C@H](CCCCN)NC(=O)CNC(=O)[C@H](Cc3ccccc3)NC(=O)[C@H]([C@@H](C)CC)NC(=O)[C@H](CO)NC(=O)CNC(=O)[C@H]([C@@H](C)CC)NC(=O)[C@H](C)NC(=O)[C@H](C)NC(=O)[C@H](CC(C)C)NC(=O)[C@@H]3CSSC[C@@H](C(=O)N[C@@H](Cc4ccc(O)cc4)C(=O)N4CCC[C@H]4C(=O)N[C@@H](CCCNC(=N)N)C(=O)N[C@@H](CCCNC(=N)N)C(=O)O)NC(=O)[C@H](CCCCN)NC(=O)[C@H](CSSC[C@H](NC(=O)[C@H](CCC(=O)O)NC(=O)[C@H](C(C)C)NC(=O)[C@H](CO)NC(=O)[C@H](C)NC(=O)[C@H](CO)NC1=O)C(=O)N[C@@H](CCCCN)C(=O)N[C@@H](CCC(N)=O)C(=O)N[C@@H](CCCCN)C(=O)N3)NC(=O)[C@H](CCCCN)NC(=O)[C@H](CCCCN)NC(=O)[C@H](CC(N)=O)NC(=O)[C@H](CCCC)NC2=O [Compound 122] (H-P[Nle]E[Nle]RCSASVECKQKCLAAIGSIFGKC[Nle]NKKCKCYPRR-OH; disulfide 6-27, 12-32, 16-34)
  IC50: 0.226 nM

## CCCC[C@H](NC(=O)[C@@H]1CCCN1)C(=O)N[C@@H](CCC(=O)O)C(=O)N[C@@H](CCCC)C(=O)N[C@@H](CCCNC(=N)N)C(=O)N[C@H]1CSSC[C@@H]2NC(=O)[C@H](CCCCN)NC(=O)CNC(=O)[C@H](Cc3ccccc3)NC(=O)[C@H]([C@@H](C)CC)NC(=O)[C@H](CO)NC(=O)CNC(=O)[C@H]([C@@H](C)CC)NC(=O)[C@H](C)NC(=O)[C@H](C)NC(=O)[C@H](CC(C)C)NC(=O)[C@@H]3CSSC[C@@H](C(=O)N[C@@H](Cc4ccc(O)cc4)C(=O)N4CCC[C@H]4C(=O)N[C@@H](CCCNC(=N)N)C(=O)N[C@@H](Cc4ccc(O)cc4)C(=O)O)NC(=O)[C@H](CCCCN)NC(=O)[C@H](CSSC[C@H](NC(=O)[C@H](CCC(=O)O)NC(=O)[C@H](C(C)C)NC(=O)[C@H](CO)NC(=O)[C@H](C)NC(=O)[C@H](CO)NC1=O)C(=O)N[C@@H](CCCCN)C(=O)N[C@@H](CCC(N)=O)C(=O)N[C@@H](CCCCN)C(=O)N3)NC(=O)[C@H](CCCCN)NC(=O)[C@H](CCCCN)NC(=O)[C@H](CC(N)=O)NC(=O)[C@H](CCCC)NC2=O [Compound 123] (H-P[Nle]E[Nle]RCSASVECKQKCLAAIGSIFGKC[Nle]NKKCKCYPRY-OH; disulfide 6-27, 12-32, 16-34)
  IC50: 1.04 nM

## CCCC[C@H](NC(=O)[C@@H]1CCCN1)C(=O)N[C@@H](CCC(=O)O)C(=O)N[C@@H](CCCC)C(=O)N[C@@H](CCCNC(=N)N)C(=O)N[C@H]1CSSC[C@@H]2NC(=O)[C@H](CCCCN)NC(=O)CNC(=O)[C@H](Cc3ccccc3)NC(=O)[C@H]([C@@H](C)CC)NC(=O)[C@H](CO)NC(=O)CNC(=O)[C@H]([C@@H](C)CC)NC(=O)[C@H](C)NC(=O)[C@H](C)NC(=O)[C@H](CC(C)C)NC(=O)[C@@H]3CSSC[C@@H](C(=O)N[C@@H](Cc4ccc(O)cc4)C(=O)N4CCC[C@H]4C(=O)N[C@@H](CCCNC(=N)N)C(=O)N[C@@H](CC(C)C)C(=O)O)NC(=O)[C@H](CCCCN)NC(=O)[C@H](CSSC[C@H](NC(=O)[C@H](CCC(=O)O)NC(=O)[C@H](C(C)C)NC(=O)[C@H](CO)NC(=O)[C@H](C)NC(=O)[C@H](CO)NC1=O)C(=O)N[C@@H](CCCCN)C(=O)N[C@@H](CCC(N)=O)C(=O)N[C@@H](CCCCN)C(=O)N3)NC(=O)[C@H](CCCCN)NC(=O)[C@H](CCCCN)NC(=O)[C@H](CC(N)=O)NC(=O)[C@H](CCCC)NC2=O [Compound 124] (H-P[Nle]E[Nle]RCSASVECKQKCLAAIGSIFGKC[Nle]NKKCKCYPRL-OH; disulfide 6-27, 12-32, 16-34)
  IC50: 1.47 nM
